The numbers were not newly measured in patent US20260174683A1, “CHEWABLE COMPOSITION COMPRISING A GUMMY MATRIX AND COMPRISING MELATONIN, SODIUM ALGINATE, AND CALCIUM LACTATE” (S.I.I.T. S.R.L.-SERVIZIO INTERNAZIONALE IMBALLAGGI …, priority 2022, published 2026), which cites them from elsewhere.

For `CC(O)C(=O)[O-].CC(O)C(=O)[O-].[Mg+2]` (centres unmarked) [Magnesium lactate, magnesium lactate], the “pH of 5% solution in water” value is reported as 6.5-8.5.

As for `CC(O)C(=O)[O-].CC(O)C(=O)[O-].[Ca+2]` (centres unmarked) [calcium lactate], the “pH of 5% solution in water” value is 6-8.
